Measured values published in ChEMBL document CHEMBL5223130, “Targeting SARS-CoV-2 Main Protease for Treatment of COVID-19: Covalent Inhibitors Structure-Activity Relationship Insights and Evolution Perspectives” (J Med Chem, 2022).
Square brackets hold non-standard residues; d marks the D form. Peptide text beside a SMILES is read from it. Nle = CCCC[C@H](N)C(=O)O

Legend:
[1] = target: T1, Replicase polyprotein 1ab (Severe acute respiratory syndrome coronavirus 2, UniProt P0DTD1); test: Binding affinity to C-terminal His-tagged SARS-CoV-2 BetaCoV/Wuhan/WIV04/2019 Main protease expressed in Escherichia coli assessed as inhibition constant
[2] = test system: SARS-CoV-2; assay type: functional, organism-based, Vero E6; details: Severe acute respiratory syndrome coronavirus 2, USA-WA1/2020, Vero C1008, 72 h
[3] = Selectivity index, ratio of EC50 for antiviral activity against SARS-CoV-2 to […]; assay type: toxicity
[4] = target: T1, Replicase polyprotein 1ab; test: Binding affinity to SARS-CoV-2 Main protease assessed as inhibition constant
[5] = test system: SARS-CoV-2; test: Antiviral activity against SARS-CoV-2 USA-WA1/2020 infected in African green monkey Vero 76 cells assessed as reduction in virus induced cytopathic effect measured after 3 days by secondary viral yield reduction assay; assay type: functional, organism-based; details: Severe acute respiratory syndrome coronavirus 2, USA-WA1/2020, Vero 76, 72 h
[6] = test system: SARS-CoV-2; assay type: functional, organism-based, Vero E6; details: Severe acute respiratory syndrome coronavirus 2, 2019-nCoV/USA_WA1/2020, Vero C1008, 72 h
[7] = target: T1, Replicase polyprotein 1ab; test: Inhibition of SARS-CoV-2 Main protease
[8] = test system: SARS-CoV-2; assay type: functional, organism-based, Vero E6; details: Severe acute respiratory syndrome coronavirus 2, nCoV-2019BetaCoV/Wuhan/WIV04/2019, Vero C1008
[9] = target: T1, Replicase polyprotein 1ab; test: Inhibition of recombinant SARS-CoV-2 Main protease expressed in Escherichia coli BL21 (DE3) cells using Mca-AVLQSGFR-K(Dnp)K as substrate preincubated for 15 mins followed by substrate addition by FRET assay
[10] = target: T1, Replicase polyprotein 1ab; test: Inhibition of SARS-CoV-2 Main protease by FRET assay
[11] = test system: SARS-CoV-2; assay type: functional, organism-based; details: Severe acute respiratory syndrome coronavirus 2, Caco-2, 72 h
[12] = test system: SARS-CoV-2; assay type: functional, organism-based; details: Severe acute respiratory syndrome coronavirus 2, A549, 96 h
[13] = target: Procathepsin L (Homo sapiens, UniProt P07711); test: Inhibition of human Cathepsin L using Z-Phe-Arg-AMC as fluorogenic substrate incubated for 30 mins followed by substrate addition by fluorescence based analysis
[14] = test system: SARS-CoV-2; assay type: functional, organism-based; details: Severe acute respiratory syndrome coronavirus 2, Caco-2
[15] = target: T1, Replicase polyprotein 1ab; test: Inhibition of SARS-CoV-2 Main protease using Dabcyl-KTSAVLQSGFRKME-Edans as substrate preincubated for 30 mins followed by substrate addition and measured after 4 hrs by fluorescence based assay
[16] = test system: SARS-CoV-2; assay type: functional, organism-based, Vero E6; details: Severe acute respiratory syndrome coronavirus 2, WK-521, Vero C1008, 72 h
[17] = test system: SARS-CoV-2; test: Antiviral activity against SARS-CoV-2 2019-nCoV/USA_WA1/2020 infected in human Huh-7 cells expressing ACE2 measured 24 hrs post infection; assay type: functional, organism-based; details: Severe acute respiratory syndrome coronavirus 2, 2019-nCoV/USA_WA1/2020, Huh-7, 24 h
[18] = target: T1, Replicase polyprotein 1ab; test: Inhibition of C-terminal His-tagged SARS-CoV-2 BetaCoV/Wuhan/WIV04/2019 Main protease expressed in Escherichia coli using Dabcyl-KTSAVLQ/SGFRKME(Edans) as substrate by FRET assay
[19] = test system: SARS-CoV-2; test: microbe, parasite or virus in culture; details: Severe acute respiratory syndrome coronavirus 2

Chain of Procathepsin L (P07711 whole entry): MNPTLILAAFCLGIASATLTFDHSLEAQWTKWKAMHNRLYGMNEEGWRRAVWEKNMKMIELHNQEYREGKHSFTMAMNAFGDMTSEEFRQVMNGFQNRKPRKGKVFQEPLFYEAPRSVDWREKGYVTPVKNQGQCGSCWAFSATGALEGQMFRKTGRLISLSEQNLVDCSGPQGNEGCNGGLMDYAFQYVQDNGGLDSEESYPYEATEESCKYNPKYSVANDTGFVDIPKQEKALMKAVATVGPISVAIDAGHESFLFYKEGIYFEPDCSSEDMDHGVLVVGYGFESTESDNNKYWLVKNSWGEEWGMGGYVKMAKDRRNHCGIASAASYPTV

CC(C)C[C@H](NC(=O)OCc1ccccc1)C(=O)N[C@@H](C[C@@H]1CCNC1=O)C(=O)C(=O)NC1CC1
Ki [1]: 36 nM
EC50 [2]: 4610 nM
Ratio [3]: 102.44

C=CCn1ccc2c(C(=O)Oc3cncc(Cl)c3)cccc21
Ratio [3]: 205.47

O=C(Oc1cncc(Cl)c1)c1cccc2c1CCN2
Ki [4]: 2150 nM
Ratio [3]: 46.87

CCC[C@H](NC(=O)[C@H](CC(C)C)NC(=O)OCc1ccccc1)C(=O)C(=O)NCc1ccccn1
EC50 [5]: 780 nM

CCOC(=O)/C=C/[C@H](C[C@@H]1CCNC1=O)NC(=O)[C@H](CC(C)C)NC(=O)[C@@H](NC(=O)OCc1ccccc1)[C@@H](C)OC(C)(C)C
EC50 [6]: 2880 nM

O=C(CCl)N1N=C(c2cc(Cl)ccc2F)C(c2ccccc2)C1c1ccc2nccnc2c1 (centres undefined)
IC50 [7]: 14 nM

C=CC(=O)N(c1ccc(C(C)(C)C)cc1)[C@H](C(=O)NCCc1cccc(F)c1)c1cccnc1
Ki [4]: 38400 nM

O=c1c2ccccc2[se]n1Cc1ccc(Cl)cc1
EC50 [8]: 1780 nM
IC50 [9]: 824 nM

CC(C)CCn1sc2ccc(Br)cc2c1=O
IC50 [10]: 320 nM

CC(C)C[C@H](NC(=O)[C@@H](NC(=O)OCc1ccccc1)[C@H](C)OC(C)(C)C)C(=O)N[C@H](C=O)C[C@@H]1CCNC1=O
EC50 [11]: 2500 nM
EC50 [12]: 310 nM
IC50 [13]: 1.2 nM

O=C[C@H](C[C@@H]1CCNC1=O)NC(=O)[C@@H]1[C@H]2CCC[C@H]2CN1C(=O)OCc1ccccc1
Ratio [3]: 50.2

COc1cncc(Cn2[se]c3ccccc3c2=O)c1
EC50 [8]: 3170 nM
IC50 [9]: 467 nM

COc1cccc(Cn2[se]c3ccccc3c2=O)c1
EC50 [8]: 4500 nM
IC50 [9]: 363 nM

C[C@H](NC[C@@H](c1cccnc1)N(C(=O)C(Br)(Br)Br)c1ccc(-c2ccccc2)cc1)c1ccccc1
EC50 [14]: 2150 nM
IC50 [7]: 80 nM
Ratio [3]: 26.87

C[C@H](NC[C@@H](c1cccnc1)N(C(=O)C(Cl)Cl)c1ccc(-c2ccccc2)cc1)c1ccccc1
EC50 [14]: 2050 nM
IC50 [7]: 430 nM
Ratio [3]: 4.76

COc1ccc(-c2sc3n(c(NC(C)(C)C)c4[n+]3[C@H]3CC(=O)C=C[C@H]3OC4)c2-c2ccc(OC)cc2)cc1
IC50 [15]: 20700 nM

CC(C)C[C@H](NC(=O)OCc1ccccc1)C(=O)N[C@@H](CC(C)C)C(=O)N[C@@H](C[C@@H]1CCNC1=O)C(=O)C(=O)NC1CC1
Ki [1]: 13 nM
EC50 [2]: 11100 nM

O=C(N[C@@H](Cc1ccccc1)C(=O)N[C@@H](C[C@@H]1CCNC1=O)C(O)S(=O)(=O)[O-])OCc1ccccc1.[Na+] (some centres undefined)
Ratio [3]: 45.78

Cc1cccc(C(=O)Oc2c(C)cccc2C(=O)Oc2cncc(Cl)c2)c1O
EC50 [16]: 24000 nM

O=C(c1cccc(Cn2[se]c3ccccc3c2=O)c1)N1CCOCC1
EC50 [8]: 3740 nM
IC50 [9]: 345 nM

CC(C)C[C@H](NC(=O)OCc1cccc(C(F)(F)F)c1)C(=O)N[C@@H](C[C@@H]1CCNC1=O)C(O)S(=O)(=O)O (some centres undefined)
EC50 [17]: 6 nM

CSCC[C@@H](C=O)NC(=O)[C@H](CC(C)C)NC(=O)[C@H](CC(C)C)NC(C)=O (Ac-Leu-Leu-Met-aldehyde)
EC50 [5]: 3700 nM

CCCC[C@@H](C=O)NC(=O)[C@H](CC(C)C)NC(=O)[C@H](CC(C)C)NC(C)=O (Ac-Leu-Leu-[Nle]-aldehyde)
IC50 [18]: 970 nM

CC(C)(C)NC(=O)N[C@H](C(=O)N1C[C@H]2[C@@H]([C@H]1C(=O)NC(CC1CCC1)C(=O)C(N)=O)C2(C)C)C(C)(C)C (some centres undefined) [BOCEPREVIR]
EC50 [19]: 1900 nM

O=C1C=CC(=O)c2c(O)ccc(O)c21 [NAPHTHAZALIN]
IC50 [7]: 490 nM
